Measurements as given in patent US20230117034A1, “PYRAZOLOTRIAZINES” (Bayer Aktiengesellschaft, priority 2019, published 2023).

Experiments:
[1] = molecular target: T1, CDK12 (nuclear staining in CAL-120 cells) (Homo sapiens, UniProt Q9NYV4); test: CDK12 nuclear protein level: immunofluorescence/high content analysis (CAL-120); type: cell-based; details: for DC50: CAL-120 cells, 24 h, immunofluorescence, 50% reduction of nuclear CDK12 staining intensity, median, read-out: CDK12 degradation IF, DC50- [mol/l] (median); for (IC50 CDK12 high ATP) to (Degradation DC50 CDK12) ratio: ratio of IC50 CDK12 high ATP kinase assay to DC50 CDK12 degradation (IF, CAL-120)
T1 construct: endogenous in cells; host or cells: CAL-120 human breast cancer cells (DSMZ ACC 459)
Summary of the method: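 DC50 is the degrader concentration that halves nuclear CDK12 immunofluorescence relative to controls, measured by high-content imaging. CAL-120 cells were exposed to compound for 24 h at 37 °C before PFA fixation, and signal was normalized to DMSO and control wells.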

[2] = tested on: BRCA1 mRNA expression in MDA-MB-231 cells; test: qRT-PCR assay: BRCA1 mRNA expression in MDA-MB-231; type: cell-based, human; details: Homo sapiens, MDA-MB-231, Inhibition of BRCA1 mRNA expression in MDA-MB-231 cells; median; read-out: RTqPCR-MDA-MB-231, IC50, BRCA1 (median)
Summary of the method: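 BRCA1 transcript by RT-qPCR relative to GAPDH, from 600 ng RNA converted to cDNA. MDA-MB-231 cells plated at 200,000/well received test compound continuously for 24 h, starting 24 h post-seeding.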

CDK12/CycK = CDK12/CycK (Homo sapiens, UniProt Q9NYV4); test: CDK12/CycK high ATP kinase assay (TR-FRET, 2 mM ATP); type: biochemical; details: 2 mM ATP (high ATP); median; read-out: CDK12/CyclinK, 2 mM ATP (high ATP), IC50-[mol/l] (median)
Summary of the method: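 Read-out is TR-FRET (Eu-anti-rabbit IgG, anti-phospho-c-Myc Ser62 antibody, streptavidin-XL665) after EDTA stop. Reaction ran 60 min at 22 °C using 1 µM biotin-peptide and high ATP (2 mM) with roughly 0.75 nM recombinant CDK12/CycK, after 15 min compound pre-binding; normalised emission ratios yield IC50.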

T1 sequence (Q9NYV4 whole entry): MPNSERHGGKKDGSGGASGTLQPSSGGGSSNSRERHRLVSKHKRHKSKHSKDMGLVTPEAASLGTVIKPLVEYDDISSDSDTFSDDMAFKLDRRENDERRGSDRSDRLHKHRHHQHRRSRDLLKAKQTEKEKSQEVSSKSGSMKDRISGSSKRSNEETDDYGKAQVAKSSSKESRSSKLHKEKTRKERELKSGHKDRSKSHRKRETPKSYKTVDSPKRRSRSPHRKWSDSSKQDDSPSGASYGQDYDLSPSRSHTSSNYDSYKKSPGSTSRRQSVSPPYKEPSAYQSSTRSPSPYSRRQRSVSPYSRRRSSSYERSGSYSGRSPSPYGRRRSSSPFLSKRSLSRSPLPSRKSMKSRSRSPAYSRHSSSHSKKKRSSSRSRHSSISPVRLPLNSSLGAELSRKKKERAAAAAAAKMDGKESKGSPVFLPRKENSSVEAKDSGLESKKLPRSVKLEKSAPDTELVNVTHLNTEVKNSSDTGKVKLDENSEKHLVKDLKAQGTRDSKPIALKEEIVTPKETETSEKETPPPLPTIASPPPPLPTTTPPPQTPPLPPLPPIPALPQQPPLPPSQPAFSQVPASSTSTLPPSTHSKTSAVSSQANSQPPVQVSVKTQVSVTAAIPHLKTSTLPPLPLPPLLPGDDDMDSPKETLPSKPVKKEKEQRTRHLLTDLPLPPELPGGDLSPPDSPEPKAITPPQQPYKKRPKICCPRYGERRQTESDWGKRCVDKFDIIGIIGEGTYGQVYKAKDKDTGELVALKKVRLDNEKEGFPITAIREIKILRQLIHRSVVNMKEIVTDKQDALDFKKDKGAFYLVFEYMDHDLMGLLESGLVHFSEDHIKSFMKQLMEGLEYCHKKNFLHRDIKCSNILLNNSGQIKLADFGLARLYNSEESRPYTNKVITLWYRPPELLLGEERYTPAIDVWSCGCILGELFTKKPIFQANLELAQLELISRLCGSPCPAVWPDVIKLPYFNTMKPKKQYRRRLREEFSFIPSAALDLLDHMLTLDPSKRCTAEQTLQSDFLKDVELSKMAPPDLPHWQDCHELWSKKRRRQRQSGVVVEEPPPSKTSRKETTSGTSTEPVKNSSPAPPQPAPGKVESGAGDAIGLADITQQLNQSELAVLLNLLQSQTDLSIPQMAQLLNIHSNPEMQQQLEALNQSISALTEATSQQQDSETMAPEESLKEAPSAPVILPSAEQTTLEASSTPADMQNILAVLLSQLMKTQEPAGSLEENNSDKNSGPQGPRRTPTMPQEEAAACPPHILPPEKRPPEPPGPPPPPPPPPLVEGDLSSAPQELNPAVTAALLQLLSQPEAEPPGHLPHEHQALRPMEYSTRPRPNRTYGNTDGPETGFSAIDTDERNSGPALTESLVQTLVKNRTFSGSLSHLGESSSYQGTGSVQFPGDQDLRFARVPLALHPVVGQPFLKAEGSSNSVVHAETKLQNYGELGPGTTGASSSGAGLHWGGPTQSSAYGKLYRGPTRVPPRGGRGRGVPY
T1 sequence (O75909 whole entry partner): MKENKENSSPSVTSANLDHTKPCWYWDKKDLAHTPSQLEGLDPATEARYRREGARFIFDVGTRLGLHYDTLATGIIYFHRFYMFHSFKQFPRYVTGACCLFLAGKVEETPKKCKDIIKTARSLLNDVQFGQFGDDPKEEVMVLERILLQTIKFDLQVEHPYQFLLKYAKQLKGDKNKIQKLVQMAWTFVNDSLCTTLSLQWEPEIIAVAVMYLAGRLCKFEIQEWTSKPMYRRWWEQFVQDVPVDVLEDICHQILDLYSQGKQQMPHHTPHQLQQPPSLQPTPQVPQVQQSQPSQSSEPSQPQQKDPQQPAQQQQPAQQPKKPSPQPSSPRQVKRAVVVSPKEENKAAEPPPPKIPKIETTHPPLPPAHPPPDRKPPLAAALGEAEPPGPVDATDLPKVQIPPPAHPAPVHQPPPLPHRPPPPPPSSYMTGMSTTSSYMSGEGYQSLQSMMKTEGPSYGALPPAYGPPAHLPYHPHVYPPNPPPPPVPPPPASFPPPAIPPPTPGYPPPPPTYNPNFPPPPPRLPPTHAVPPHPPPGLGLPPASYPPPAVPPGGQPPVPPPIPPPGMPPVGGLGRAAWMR
Chain of CDK12/CycK (Q9NYV4 with tags, fused parts or gaps): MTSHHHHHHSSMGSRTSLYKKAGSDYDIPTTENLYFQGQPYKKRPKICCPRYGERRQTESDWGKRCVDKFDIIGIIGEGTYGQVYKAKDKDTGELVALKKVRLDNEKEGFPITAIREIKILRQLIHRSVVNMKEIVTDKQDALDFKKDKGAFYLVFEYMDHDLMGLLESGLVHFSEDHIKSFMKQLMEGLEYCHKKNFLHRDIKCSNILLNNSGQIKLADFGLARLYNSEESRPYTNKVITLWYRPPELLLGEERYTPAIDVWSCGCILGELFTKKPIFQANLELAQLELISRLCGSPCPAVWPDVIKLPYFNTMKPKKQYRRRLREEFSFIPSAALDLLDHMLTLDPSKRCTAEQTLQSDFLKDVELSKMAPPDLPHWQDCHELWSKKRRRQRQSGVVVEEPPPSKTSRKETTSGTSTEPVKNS
Chain of CDK12/CycK (O75909 1-300 partner limits assumed): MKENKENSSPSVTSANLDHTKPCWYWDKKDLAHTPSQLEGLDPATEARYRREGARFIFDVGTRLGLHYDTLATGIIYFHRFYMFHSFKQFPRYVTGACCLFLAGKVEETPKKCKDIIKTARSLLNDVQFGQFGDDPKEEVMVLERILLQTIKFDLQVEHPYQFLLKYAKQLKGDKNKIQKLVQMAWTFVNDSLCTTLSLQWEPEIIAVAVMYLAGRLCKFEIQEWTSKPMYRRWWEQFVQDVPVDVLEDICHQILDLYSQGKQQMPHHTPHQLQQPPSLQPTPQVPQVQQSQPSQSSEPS

| DC50 [1] [nM] | (IC50 CDK12 high ATP) to (Degradation DC50 CDK12) ratio [1] | IC50 [2] [nM] | IC50 (CDK12/CycK) [nM] | SMILES |
| --- | --- | --- | --- | --- |
| 5.38 | 2107 | 10.6 | 11300 | Fc1ccc2[nH]c(CNc3nc(N4CCOCC4)nc4c(C5CC5(F)F)cnn34)nc2c1 (racemic) [Example 286, 8-[(1RS)-2,2-difluorocyclopropyl]-N-[(5-fluoro-1H-benzimidazol-2-yl)methyl]-2-(morpholin-4-yl)pyrazolo[1,5-a][1,3,5]triazin-4-amine] |
| 21.4 | 678 | – | 14500 | CN1CCN(c2nc(NCc3nc4ccccc4[nH]3)n3ncc(Br)c3n2)C(CO)C1 (single isomer, unassigned) [Example 280, [(2R or S)-1-(4-{[(1H-benzimidazol-2-yl)methyl]amino}-8-bromopyrazolo[1,5-a][1,3,5]triazin-2-yl)-4-methylpiperazin-2-yl]methanol] |
| 40.3 | >419 | – | > 16900 | C[C@@]1(O)CCN(c2nc(NCc3nc4ccccc4[nH]3)n3ncc(Br)c3n2)C1 (single isomer, unassigned) [Example 281, (3R or S)-1-(4-{[(1H-benzimidazol-2-yl)methyl]amino}-8-bromopyrazolo[1,5-a][1,3,5]triazin-2-yl)-3-methylpyrrolidin-3-ol] |
| 27.9 | >320 | – | > 8950 | CC1(O)CCN(c2nc(NCc3nc4ccccc4[nH]3)n3ncc(Br)c3n2)C1 (single isomer, unassigned) [Example 282, (3R or S)-1-(4-{[(1H-benzimidazol-2-yl)methyl]amino}-8-bromopyrazolo[1,5-a][1,3,5]triazin-2-yl)-3-methylpyrrolidin-3-ol] |
| 8.47 | 1171 | 35.7 | 9920 | Fc1ccc2[nH]c(CNc3nc(N4CCOCC4)nc4c(C5CC5(F)F)cnn34)nc2c1 (single isomer, unassigned) [Example 314, 8-[(1R or S)-2,2-difluorocyclopropyl]-N-[(5-fluoro-1H-benzimidazol-2-yl)methyl]-2-(morpholin-4-yl)pyrazolo[1,5-a][1,3,5]triazin-4-amine] |
| 33.9 | >581 | 75.3 | > 19700 | Fc1ccc2[nH]c(CNc3nc(N4CCOCC4)nc4c([C@@H]5CC5(F)F)cnn34)nc2c1 (single isomer, unassigned) [Example 315, 8-[(1R or S)-2,2-difluorocyclopropyl]-N-[(5-fluoro-1H-benzimidazol-2-yl)methyl]-2-(morpholin-4-yl)pyrazolo[1,5-a][1,3,5]triazin-4-amine] |
| 1.78 | 6819 | 3.42 | 12200 | CC1CN(C)CCN1c1nc(NCc2nc3ccccc3[nH]2)n2ncc(Br)c2n1 (single isomer, unassigned; enantiomer 1) [Example 260, N-(1H-benzimidazol-2-ylmethyl)-8-bromo-2-[(2R or S)-2,4-dimethylpiperazin-1-yl]pyrazolo[1,5-a][1,3,5]triazin-4-amine (Enantiomer 1)] |
| 19.9 | >942 | – | > 18700 | CC1CN(C)CCN1c1nc(NCc2nc3ccccc3[nH]2)n2ncc(Br)c2n1 (single isomer, unassigned; enantiomer 2) [Example 261, N-(1H-benzimidazol-2-ylmethyl)-8-bromo-2-[(2R or S)-2,4-dimethylpiperazin-1-yl]pyrazolo[1,5-a][1,3,5]triazin-4-amine (Enantiomer 2)] |
| 10.9 | 1056 | – | 11500 | Brc1cnn2c(NCc3nc4cccnc4[nH]3)nc(N3CCNCC3)nc12.O=CO [Example 19, 8-bromo-N-[(3H-imidazo[4,5-b]pyridin-2-yl)methyl]-2-(piperazin-1-yl)pyrazolo[1,5-a][1,3,5]triazin-4-amine formic acid salt] |
| 2.57 | 681 | 6.81 | 1750 | Cc1ccnc2[nH]c(CNc3nc(N4CCOCC4)nc4c(Br)cnn34)nc12 [Example 20, 8-bromo-N-[(7-methyl-3H-imidazo[4,5-b]pyridin-2-yl)methyl]-2-(morpholin-4-yl)pyrazolo[1,5-a][1,3,5]triazin-4-amine] |
| 186 | 52 | 31.8 | 9640 | Brc1cnn2c(NCc3nc4c([nH]3)CCCC4)nc(N3CCOCC3)nc12 [Example 21, 8-bromo-2-(morpholin-4-yl)-N-[(4,5,6,7-tetrahydro-1H-benzimidazol-2-yl)methyl]pyrazolo[1,5-a][1,3,5]triazin-4-amine] |
| 101 | – | – | > 20000 | c1ccc2[nH]c(CNc3nc(N4CCOCC4)nc4c(C5CCCC5)cnn34)nc2c1 [Example 244, N-[(1H-benzimidazol-2-yl)methyl]-8-cyclopentyl-2-(morpholin-4-yl)pyrazolo[1,5-a][1,3,5]triazin-4-amine] |
| 19.2 | >1044 | – | > 20000 | Brc1cnn2c(NCc3nc4ccccc4[nH]3)nc(N3C[C@H]4CN[C@H]4C3)nc12.O=C(O)C(F)(F)F [Example 255, trifluoroacetic acid-N-[(1H-benzimidazol-2-yl)methyl]-8-bromo-2-[(1R,5R)-3,6-diazabicyclo[3.2.0]heptan-3-yl]pyrazolo[1,5-a][1,3,5]triazin-4-amine (1/1)] |
| 11.4 | >500 | – | > 5710 | Fc1ccc2[nH]c(CNc3nc(N4CCOCC4)nc4c(C5CCCC5)cnn34)nc2c1F [Example 262, 8-cyclopentyl-N-[(4,5-difluoro-1H-benzimidazol-2-yl)methyl]-2-(morpholin-4-yl)pyrazolo[1,5-a][1,3,5]triazin-4-amine] |
| 7.23 | >2310 | – | > 16700 | FC(F)(F)Cc1cnn2c(NCc3nc4ccccc4[nH]3)nc(N3CCOCC3)nc12.O=CO [Example 265, formic acid-N-[(1H-benzimidazol-2-yl)methyl]-2-(morpholin-4-yl)-8-(2,2,2-trifluoroethyl)pyrazolo[1,5-a][1,3,5]triazin-4-amine (1/1)] |
| 52.4 | 66 | – | 3480 | NC1(C(F)(F)F)CCN(c2nc(NCc3nc4ccccc4[nH]3)n3ncc(Br)c3n2)C1 (stereo not drawn) [Example 266, 2-[3-amino-3-(trifluoromethyl)pyrrolidin-1-yl]-N-(1H-benzimidazol-2-ylmethyl)-8-bromo-pyrazolo[1,5-a][1,3,5]triazin-4-amine] |
| 31.9 | >627 | – | > 20000 | Brc1cnn2c(NCc3nc4ccccc4[nH]3)nc(N3C[C@@H]4CN[C@@H]4C3)nc12.O=C(O)C(F)(F)F [Example 267, trifluoroacetic acid-N-[(1H-benzimidazol-2-yl)methyl]-8-bromo-2-[(1S,5S)-3,6-diazabicyclo[3.2.0]heptan-3-yl]pyrazolo[1,5-a][1,3,5]triazin-4-amine (1/1)] |
| 38.8 | >516 | – | > 20000 | Fc1ccc2[nH]c(CNc3nc(N4CCOCC4)nc4c(C5CCOCC5)cnn34)nc2c1F [Example 276, N-[(4,5-difluoro-1H-benzimidazol-2-yl)methyl]-2-(morpholin-4-yl)-8-(oxan-4-yl)pyrazolo[1,5-a][1,3,5]triazin-4-amine] |
| 32.3 | 200 | – | 6440 | CC(C)CNc1nc(NCc2nc3ccccc3[nH]2)n2ncc(Br)c2n1 [Example 285, N^4-[(1H-benzimidazol-2-yl)methyl]-8-bromo-N^2-(2-methylpropyl)pyrazolo[1,5-a][1,3,5]triazine-2,4-diamine] |
| 74.6 | 167 | – | 12500 | OCC1CN(c2nc(NCc3nc4ccccc4[nH]3)n3ncc(Br)c3n2)C1 [Example 304, [1-(4-{[(1H-benzimidazol-2-yl)methyl]amino}-8-bromopyrazolo[1,5-a][1,3,5]triazin-2-yl)azetidin-3-yl]methanol] |

| SMILES | DC50 [1] [nM] | (IC50 CDK12 high ATP) to (Degradation DC50 CDK12) ratio [1] | IC50 [2] [nM] | IC50 (CDK12/CycK) [nM] |
| --- | --- | --- | --- | --- |
| Brc1cnn2c(NCc3nc4ccccc4[nH]3)nc(N3C[C@H]4CC[C@@H]3CN4)nc12 (single isomer, unassigned) [Example 316, N-[(1H-benzimidazol-2-yl)methyl]-8-bromo-2-{[1R or S-(1R*4R*)]-2,5-diazabicyclo[2.2.2]octan-2-yl}pyrazolo[1,5-a][1,3,5]triazin-4-amine] | 5.62 | 519 | 12.4 | 2920 |
